Reference: patent US11623940B2, “Methods of nucleic acid synthesis comprising polyphosphate containing species” (Nuclera Nucleics Ltd., priority 2017, dated 2023)
Entries after “also recorded” stand apart in the source; their conditions may differ. Each block holds one compound with its values, some of them ahead of it.

Experiments:
terminal transferase [1] = assay: dCTP tailing with terminal transferase after capping pre-treatment of initiator strand (gel); type: biochemical; conditions: for incorporation of dCTP into pre-treated initiator strand when exposed to terminal transferase and dCTP: FIG. 1 lanes 5 and 6, pre-treated with dideoxynucleoside triphosphate
Text: (§1) FIG. 1: Incorporation of dideoxynucleoside triphosphates by a terminal transferase prevents subsequent DNA synthesis. Lane 1: initiator sequence; Lane 2: dideoxyadenosine triphosphate addition; Lane 3: dideoxythymidine triphosphate addition; Lanes 4-6: duplicates of lanes 1-3 exposed to dCTP tailing conditions; Lane 7: initiator sequence. While dCTP tailing leads to the formation of a range of higher molecular weight products (Lane 4), prior treatment with a terminal transferase and dideoxynucleoside triphosphate prevents the formation of such higher molecular weight species (Lanes 5 and 6).
FIG. 2: Incorporation of tripolyphosphate by a terminal transferase prevents subsequent DNA synthesis. […] Reaction products were analysed by denaturing polyacrylamide gel and visualized by an internal FAM dye.
(§2) Data is presented herein which exemplifies the utility of dideoxynucleoside triphosphates as a capping agent by incorporating a dideoxynucleotide using a terminal transferase, and so preventing polymerization of deoxycytidine triphosphate (dCTP) in a subsequent step with terminal transferase (FIG. 1). […] When the initiator strand is exposed to terminal transferase in the presence of dCTP, many higher molecular weight products are formed (a smear on the gel) due to the uncontrolled incorporation of dCTP into the initiator strand (lane 4). […] Lane 7 is a duplicate of lane 1.
(§3) Data is presented herein which exemplifies the utility of tripolyphosphate as a capping agent by incorporating a phosphate moiety on the 3′-terminus of an oligonucleotide using a terminal transferase, and so preventing polymerization of dCTP in a subsequent step with terminal transferase (FIG. 2). […] The new species migrates faster on the polyacrylamide gel due to the additional charge presented by the new 3′-phosphate moiety. […] Following incubation with the terminal transferase and tripolyphosphate, the mixture was removed. The initiator strand was then incubated with a terminal transferase and canonical dCTP. If a free 3′-hydroxyl is present, terminal transferase will add many dCTP in an uncontrolled fashion to generate higher molecular weight oligonucleotides.

terminal transferase [2] = assay: Terminal transferase-mediated addition of capping polyphosphate species to initiator strand (denaturing polyacrylamide gel); type: biochemical; conditions: for conversion of initiator strand of length N by terminal transferase-mediated addition: FIG. 1 lanes 2 and 3
Text: as §1
FIG. 2: Incorporation of tripolyphosphate by a terminal transferase prevents subsequent DNA synthesis. Lane 1: initiator sequence; Lane 2: 1 mM sodium tripolyphosphate; Lane 3: 10 mM sodium tripolyphosphate; Lane 4: 50 mM sodium tripolyphosphate; Lanes 5-7: duplicates of lanes 2-4 exposed to dCTP tailing conditions. Reaction products were analysed by denaturing polyacrylamide gel and visualized by an internal FAM dye.
as §2, §3

incorporation of dCTP into pre-treated initiator strand when exposed to terminal transferase and dCTP (terminal transferase [1]): resistant to incorporation of dCTP | conversion of initiator strand of length N by terminal transferase-mediated addition (terminal transferase [2]): converted to an N+1 species
Compound: Nc1ncnc2c1ncn2[C@H]1CC[C@@H](COP(=O)(O)OP(=O)(O)OP(=O)(O)O)O1 [ddATP, dideoxyadenosine triphosphate]

Compound: dideoxythymidine triphosphate [ddTTP]
incorporation of dCTP into pre-treated initiator strand when exposed to terminal transferase and dCTP (terminal transferase [1]): resistant to incorporation of dCTP | conversion of initiator strand of length N by terminal transferase-mediated addition (terminal transferase [2]): converted to an N+1 species

Compound: sodium tripolyphosphate
dCTP polymerization by terminal transferase after capping pre-incubation (terminal transferase [1]; pre-incubation with 1 mM tripolyphosphate, FIG. 2 lane 5): largely prevents this polymerization; also recorded: resistant to enzyme mediated DNA polymerisation | dCTP polymerization by terminal transferase after capping pre-incubation (terminal transferase [1]; pre-incubation with 5 mM tripolyphosphate, FIG. 2 lane 6): largely prevents this polymerization | dCTP polymerisation by terminal transferase after capping pre-incubation (terminal transferase [1]; pre-incubation with 10 mM sodium tripolyphosphate, FIG. 2 lane 6 (figure legend)): resistant to enzyme mediated DNA polymerisation | dCTP polymerization by terminal transferase after capping pre-incubation (terminal transferase [1]; pre-incubation with 50 mM tripolyphosphate, FIG. 2 lane 7): complete polymerization to higher molecular weight species | terminal transferase mediated 3′-phosphorylation of initiator strand (terminal transferase [2]; 1 mM tripolyphosphate, FIG. 2 lane 2): partially converted to a new 3′-phosphorylated species; also recorded: converted to a 3′-phosphorylated initiator sequence | terminal transferase mediated 3′-phosphorylation of initiator strand (terminal transferase [2]; 5 mM tripolyphosphate, FIG. 2 lane 3): partially converted to a new 3′-phosphorylated species | terminal transferase mediated 3′-phosphorylation of initiator sequence (terminal transferase [2]; 10 mM sodium tripolyphosphate, FIG. 2 lane 3 (figure legend)): converted to a 3′-phosphorylated initiator sequence | terminal transferase mediated 3′-phosphorylation of initiator strand (terminal transferase [2]; 50 mM tripolyphosphate, FIG. 2 lane 4): does not proceed
